Reference: ChEMBL document CHEMBL4196087 (Eur J Med Chem, 2018)

Assays:
MDA-MB-468 [1] = assay: Antiproliferative activity against human MDA-MB-468 cells after 48 hrs by MTT assay; assay type: functional, cell-based; conditions: MDA-MB-468, 48 h
HL-60 = assay: Antiproliferative activity against human HL60 cells after 48 hrs by MTT assay; assay type: functional, cell-based; conditions: HL-60, 48 h
NCI-H226 [2] = assay: Antiproliferative activity against human NCI-H226 cells after 48 hrs by MTT assay; assay type: functional, cell-based; conditions: NCI-H226, 48 h
IGROV-1 [3] = assay: Antiproliferative activity against human IGROV1 cells after 48 hrs by MTT assay; assay type: functional, cell-based; conditions: IGROV-1, 48 h
UO-31 [4] = assay: Induction of apoptosis in human UO31 cells assessed as caspase-3 activation by measuring active caspase-3 level at 6.44 uM by […] (reference value: 66 pg/ml); assay type: functional
UO-31 [5] = assay: Antiproliferative activity against human UO31 cells after 48 hrs by MTT assay; assay type: functional, cell-based; conditions: UO-31, 48 h
HOP-92 = assay: Growth inhibition of human HOP92 cells at 10^-5 M incubated for 48 hrs by sulforhodamine B assay relative to control; assay type: functional; conditions: HOP-92, 48 h, read-out: GI
PC-3 = assay: Growth inhibition of human PC3 cells at 10^-5 M incubated for 48 hrs by sulforhodamine B assay relative to control; assay type: functional; conditions: PC-3, 48 h, read-out: GI
LOX IMVI = assay: Growth inhibition of human LOXIMVI cells at 10^-5 M incubated for 48 hrs by sulforhodamine B assay relative to control; assay type: functional; conditions: read-out: GI
MDA-MB-231 = assay: Growth inhibition of human MDA-MB-231 cells at 10^-5 M incubated for 48 hrs by sulforhodamine B assay relative to control; assay type: functional; conditions: MDA-MB-231, 48 h, read-out: GI
UO-31 [6] = assay: Cell cycle arrest in human UO31 cells assessed as accumulation at pre-G1 phase at 0.72 uM after 24 hrs by propidium iodide staining based flow cytometry relative to control; assay type: functional
MDA-MB-468 [7] = assay: Growth inhibition of human MDA-MB-468 cells at 10^-5 M incubated for 48 hrs by sulforhodamine B assay relative to control; assay type: functional; conditions: MDA-MB-468, 48 h, read-out: GI
Staphylococcus aureus = assay: Antibacterial activity against Staphylococcus aureus at 37 degC measured after 24 hrs by agar disc diffusion method; assay type: functional
DNA topoisomerase 2-beta [8] = biological target: T1, DNA topoisomerase 2-beta (Homo sapiens, UniProt Q02880); assay: Inhibition of human topoisomerase-2B after 2 hrs by ELISA
T1 sequence (Q02880 whole entry): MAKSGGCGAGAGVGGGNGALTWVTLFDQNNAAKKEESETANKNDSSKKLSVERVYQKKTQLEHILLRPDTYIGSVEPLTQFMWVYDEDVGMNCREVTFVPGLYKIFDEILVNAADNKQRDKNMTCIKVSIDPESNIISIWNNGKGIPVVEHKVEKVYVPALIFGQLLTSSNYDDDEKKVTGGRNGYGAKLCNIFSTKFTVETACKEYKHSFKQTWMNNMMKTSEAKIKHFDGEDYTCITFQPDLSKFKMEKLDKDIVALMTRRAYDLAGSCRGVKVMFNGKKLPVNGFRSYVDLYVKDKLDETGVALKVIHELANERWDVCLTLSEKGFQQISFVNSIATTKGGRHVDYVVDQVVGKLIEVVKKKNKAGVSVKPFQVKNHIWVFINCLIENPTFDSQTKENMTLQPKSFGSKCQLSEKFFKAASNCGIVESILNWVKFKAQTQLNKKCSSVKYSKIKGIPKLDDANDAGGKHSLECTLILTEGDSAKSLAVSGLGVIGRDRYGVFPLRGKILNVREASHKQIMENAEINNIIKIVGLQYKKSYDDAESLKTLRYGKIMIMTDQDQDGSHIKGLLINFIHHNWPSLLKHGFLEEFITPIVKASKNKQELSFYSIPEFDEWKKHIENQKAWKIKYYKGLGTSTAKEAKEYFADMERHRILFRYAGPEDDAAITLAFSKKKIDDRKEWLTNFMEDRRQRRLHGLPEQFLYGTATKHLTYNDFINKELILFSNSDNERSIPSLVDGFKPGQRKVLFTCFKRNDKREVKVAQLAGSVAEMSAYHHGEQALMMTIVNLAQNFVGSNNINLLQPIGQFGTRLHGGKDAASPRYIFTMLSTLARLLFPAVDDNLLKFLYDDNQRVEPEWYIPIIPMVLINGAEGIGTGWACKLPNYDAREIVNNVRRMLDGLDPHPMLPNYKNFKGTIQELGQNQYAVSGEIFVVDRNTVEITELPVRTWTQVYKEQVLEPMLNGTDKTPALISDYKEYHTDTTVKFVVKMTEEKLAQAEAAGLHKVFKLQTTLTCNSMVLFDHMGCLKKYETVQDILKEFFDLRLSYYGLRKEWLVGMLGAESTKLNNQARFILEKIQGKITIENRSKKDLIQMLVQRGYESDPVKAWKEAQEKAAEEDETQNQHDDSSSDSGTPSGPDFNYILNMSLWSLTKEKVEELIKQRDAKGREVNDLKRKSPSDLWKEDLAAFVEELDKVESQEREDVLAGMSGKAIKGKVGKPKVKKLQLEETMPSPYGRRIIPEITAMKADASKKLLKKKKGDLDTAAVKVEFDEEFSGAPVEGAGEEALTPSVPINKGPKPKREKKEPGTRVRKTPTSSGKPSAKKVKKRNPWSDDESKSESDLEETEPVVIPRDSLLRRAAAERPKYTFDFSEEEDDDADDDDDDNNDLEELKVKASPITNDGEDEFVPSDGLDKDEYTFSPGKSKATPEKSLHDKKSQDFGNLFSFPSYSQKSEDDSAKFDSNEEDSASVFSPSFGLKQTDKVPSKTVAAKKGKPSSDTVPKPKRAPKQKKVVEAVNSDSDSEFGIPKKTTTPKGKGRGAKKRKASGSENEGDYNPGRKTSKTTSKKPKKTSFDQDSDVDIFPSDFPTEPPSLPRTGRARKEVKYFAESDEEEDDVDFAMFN

SK-MEL-5 = assay: Growth inhibition of human SK-MEL-5 cells at 10^-5 M incubated for 48 hrs by sulforhodamine B assay relative to control; assay type: functional; conditions: SK-MEL-5, 48 h, read-out: GI
UO-31 [9] = assay: Induction of apoptosis in human UO31 cells assessed as late apoptotic cells at 0.72 uM after 24 hrs by Annexin V-FITC/propidium iodide staining based flow cytometry (reference value: 0.22%); assay type: functional
UO-31 [10] = assay: Cell cycle arrest in human UO31 cells assessed as accumulation at G2/M phase at 0.72 uM after 24 hrs by propidium iodide staining based flow cytometry relative to control; assay type: functional
DNA topoisomerase 2-beta [11] = biological target: T1, DNA topoisomerase 2-beta; assay: Potency index, ratio of amsacrine IC50 to compound IC50 for inhibition of human topoisomerase-2B
SF-539 = assay: Growth inhibition of human SF539 cells at 10^-5 M incubated for 48 hrs by sulforhodamine B assay relative to control; assay type: functional; conditions: SF-539, 48 h, read-out: GI
T47D = assay: Growth inhibition of human T47D cells at 10^-5 M incubated for 48 hrs by sulforhodamine B assay relative to control; assay type: functional; conditions: read-out: GI
MCF7 = assay: Growth inhibition of human MCF7 cells at 10^-5 M incubated for 48 hrs by sulforhodamine B assay relative to control; assay type: functional; conditions: MCF7, 48 h, read-out: GI
HL-60(TB) = assay: Growth inhibition of human HL-60(TB) cells at 10^-5 M incubated for 48 hrs by sulforhodamine B assay relative to control; assay type: functional; conditions: HL-60, 48 h, read-out: GI
CCRF-CEM = assay: Growth inhibition of human CCRF-CEM cells at 10^-5 M incubated for 48 hrs by sulforhodamine B assay relative to control; assay type: functional; conditions: read-out: GI
NCI-H226 [12] = assay: Potency index, ratio of doxorubicin IC50 to compound IC50 for antiproliferative activity against human NCI-H226 cells; assay type: functional
UO-31 [13] = assay: Potency index, ratio of doxorubicin IC50 to compound IC50 for antiproliferative activity against human UO31 cells; assay type: functional
UO-31 [14] = assay: Antiproliferative activity against human UO31 cells after 48 hrs by SRB assay; assay type: functional; conditions: UO-31, 48 h
Escherichia coli = assay: Antibacterial activity against Escherichia coli at 37 degC measured after 24 hrs by agar disc diffusion method; assay type: functional
A498 = assay: Growth inhibition of human A498 cells at 10^-5 M incubated for 48 hrs by sulforhodamine B assay relative to control; assay type: functional; conditions: A498, 48 h, read-out: GI
NCI-H226 [15] = assay: Growth inhibition of human NCI-H226 cells at 10^-5 M incubated for 48 hrs by sulforhodamine B assay relative to control; assay type: functional; conditions: NCI-H226, 48 h, read-out: GI
UO-31 [16] = assay: Cell cycle arrest in human UO31 cells assessed as apoptotic cells at 0.72 uM after 24 hrs by propidium iodide staining based flow cytometry (reference value: 0.49%); assay type: functional
UO-31 [17] = assay: Induction of apoptosis in human UO31 cells assessed as caspase-3 activation by measuring active caspase-3 level at 0.72 uM by […] (reference value: 66 pg/ml); assay type: functional
RPMI-8226 = assay: Growth inhibition of human RPMI8226 cells at 10^-5 M incubated for 48 hrs by sulforhodamine B assay relative to control; assay type: functional; conditions: RPMI-8226, 48 h, read-out: GI
HOP-62 = assay: Growth inhibition of human HOP62 cells at 10^-5 M incubated for 48 hrs by sulforhodamine B assay relative to control; assay type: functional; conditions: HOP-62, 48 h, read-out: GI
K562 = assay: Growth inhibition of human K562 cells at 10^-5 M incubated for 48 hrs by sulforhodamine B assay relative to control; assay type: functional; conditions: K562, 48 h, read-out: GI
SNB-75 = assay: Growth inhibition of human SNB75 cells at 10^-5 M incubated for 48 hrs by sulforhodamine B assay relative to control; assay type: functional; conditions: SNB-75, 48 h, read-out: GI
UO-31 [18] = assay: Growth inhibition of human UO31 cells at 10^-5 M incubated for 48 hrs by sulforhodamine B assay relative to control; assay type: functional; conditions: UO-31, 48 h, read-out: GI
Bacillus subtilis = assay: Antibacterial activity against Bacillus subtilis at 37 degC measured after 24 hrs by agar disc diffusion method; assay type: functional
Pseudomonas aeruginosa = assay: Antibacterial activity against Pseudomonas aeruginosa at 37 degC measured after 24 hrs by agar disc diffusion method; assay type: functional
IGROV-1 [19] = assay: Growth inhibition of human IGROV1 cells at 10^-5 M incubated for 48 hrs by sulforhodamine B assay relative to control; assay type: functional; conditions: IGROV-1, 48 h, read-out: GI
MOLT-4 = assay: Growth inhibition of human MOLT4 cells at 10^-5 M incubated for 48 hrs by sulforhodamine B assay relative to control; assay type: functional; conditions: MOLT-4, 48 h, read-out: GI
DNA topoisomerase 2-beta [20] = biological target: T1, DNA topoisomerase 2-beta; assay: Potency index, ratio of doxorubicin IC50 to compound IC50 for inhibition of human topoisomerase-2B
UO-31 [21] = assay: Induction of apoptosis in human UO31 cells assessed as early apoptotic cells at 0.72 uM after 24 hrs by Annexin V-FITC/propidium iodide staining based flow cytometry (reference value: 0.19%); assay type: functional
UO-31 [22] = assay: Induction of apoptosis in human UO31 cells assessed as live cells at 0.72 uM after 24 hrs by Annexin V-FITC/propidium iodide staining based low cytometry (reference value: 97.84%); assay type: functional
IGROV-1 [23] = assay: Potency index, ratio of doxorubicin IC50 to compound IC50 for antiproliferative activity against human IGROV1 cells; assay type: functional
UO-31 [24] = assay: Cell cycle arrest in human UO31 cells assessed as accumulation at G2 phase at 0.72 uM after 24 hrs by propidium iodide staining based flow cytometry (reference value: 5.49%); assay type: functional
IGROV-1 [25] = assay: Antiproliferative activity against human IGROV1 cells after 48 hrs by SRB assay; assay type: functional; conditions: IGROV-1, 48 h, read-out: LC50 (the source's name)
NCI-H226 [26] = assay: Antiproliferative activity against human NCI-H226 cells after 48 hrs by SRB assay; assay type: functional; conditions: NCI-H226, 48 h, read-out: LC50 (the source's name)
UO-31 [27] = assay: Cell cycle arrest in human UO31 cells assessed as accumulation at G1 phase at 0.72 uM after 24 hrs by propidium iodide staining based flow cytometry (reference value: 69.55%); assay type: functional
UO-31 [28] = assay: Induction of apoptosis in human UO31 cells assessed as necrotic cells at 0.72 uM after 24 hrs by Annexin V-FITC/propidium iodide staining based flow cytometry (reference value: 0.08%); assay type: functional
UO-31 [29] = assay: Cell cycle arrest in human UO31 cells assessed as accumulation at S phase at 0.72 uM after 24 hrs by propidium iodide staining based flow cytometry (reference value: 24.47%); assay type: functional

SMILES: COc1cccc2c1C(=O)c1c(O)c3c(c(O)c1C2=O)C[C@@](O)(C(=O)CO)C[C@@H]3O[C@H]1C[C@H](N)[C@H](O)[C@H](C)O1 [DOXORUBICIN]
- IC50 (MDA-MB-468 [1]): 2.81 µM
- IC50 (HL-60): 8.91 µM
- IC50 (NCI-H226 [2]): 5.07 µM
- IC50 (IGROV-1 [3]): 4.36 µM
- Activity (UO-31 [4]): 375.6 pg/mL
- IC50 (UO-31 [5]): 6.44 µM

SMILES: O=C(CN1CCN(c2cc3c(cc2F)c(=O)c(C(=O)O)cn3C2CC2)CC1)N/N=C/c1cc2ccccc2[nH]1
- inhibition of growth at 10 µM (HOP-92): 29.8%
- inhibition of growth at 10 µM (PC-3): 20.3%
- inhibition of growth at 10 µM (LOX IMVI): 36.6%
- inhibition of growth at 10 µM (MDA-MB-231): 28.1%
- fold change (FC) (UO-31 [6]): 8.8
- inhibition of growth at 10 µM (MDA-MB-468 [7]): < 20%
- diameter of the inhibition zone (DIZ) (Staphylococcus aureus): 25 mm
- IC50 (DNA topoisomerase 2-beta [8]): 0.86 µM
- inhibition of growth at 10 µM (SK-MEL-5): < 20%
- Activity (UO-31 [9]): 1.88%
- IC50 (NCI-H226 [2]): 1.02 µM
- fold change (FC) (UO-31 [10]): 2.06
- IC50 (IGROV-1 [3]): 0.75 µM
- Ratio IC50 (DNA topoisomerase 2-beta [11]): 3
- inhibition of growth at 10 µM (SF-539): < 20%
- inhibition of growth at 10 µM (T47D): 25.5%
- inhibition of growth at 10 µM (MCF7): < 20%
- inhibition of growth at 10 µM (HL-60(TB)): < 20%
- inhibition of growth at 10 µM (CCRF-CEM): < 20%
- Ratio IC50 (NCI-H226 [12]): 4.9
- Ratio IC50 (UO-31 [13]): 1.5 - 9
- LC50 (UO-31 [14]): 15.1 µM
- diameter of the inhibition zone (DIZ) (Escherichia coli): 25 mm
- inhibition of growth at 10 µM (A498): < 20%
- inhibition of growth at 10 µM (NCI-H226 [15]): 34.4%
- Activity (UO-31 [16]): 4.35%
- Activity (UO-31 [17]): 293.6 pg/mL
- inhibition of growth at 10 µM (RPMI-8226): < 20%
- inhibition of growth at 10 µM (HOP-62): 29%
- inhibition of growth at 10 µM (K562): < 20%
- inhibition of growth at 10 µM (SNB-75): < 20%
- inhibition of growth at 10 µM (UO-31 [18]): 34.1%
- diameter of the inhibition zone (DIZ) (Bacillus subtilis): 27 mm
- diameter of the inhibition zone (DIZ) (Pseudomonas aeruginosa): 27 mm
- inhibition of growth at 10 µM (IGROV-1 [19]): 43.5%
- inhibition of growth at 10 µM (MOLT-4): < 20%
- IC50 (UO-31 [5]): 0.72 µM
- Ratio IC50 (DNA topoisomerase 2-beta [20]): 4
- Activity (UO-31 [21]): 2.14%
- Activity (UO-31 [22]): 93.84%
- Ratio IC50 (IGROV-1 [23]): 5.8
- Activity (UO-31 [24]): 11.32%
- CC50 (IGROV-1 [25]): 18.8 µM
- CC50 (NCI-H226 [26]): 15.4 µM
- Activity (UO-31 [27]): 62.64%
- Activity (UO-31 [28]): 0.33%
- Activity (UO-31 [29]): 21.69%
